{
  "source": "patent US20160206688A1",
  "about": "“METHODS FOR TREATING BACTEREMIA AND OSTEOMYELITIS USING ORITAVANCIN” (THE MEDICINES COMPANY, priority 2013, published 2016)",
  "key": {"E. faecium [1]": {"tested_on": "E. faecium", "assay": "Broth microdilution MIC, US isolates 2011-2012, blood vs non-blood", "format": "cell-based", "procedure": "(§1) 527 E. faecalis, 176 E. faecium, and 790 BHS (335 S. pyogenes and 455 S. agalactiae) clinical, single patient, non-consecutive isolates were collected in 2011-2012 from 46 sites geographically distributed across the United States. The MICs were determined by broth microdilution testing performed in accordance with CLSI M7 and M100 guidelines. From the resulting database, this analysis focused on the activities of ORI, vancomycin (VAN), daptomycin (DAP), and linezolid (LZD) according to specimen source."}, "S. agalactiae": {"tested_on": "S. agalactiae", "assay": "Broth microdilution MIC, US isolates 2011-2012, blood vs non-blood", "format": "cell-based", "procedure": "as §1"}, "E. faecalis [2]": {"tested_on": "E. faecalis", "assay": "Broth microdilution MIC, US isolates 2011-2012, blood vs non-blood", "format": "cell-based", "procedure": "as §1"}, "S. pyogenes": {"tested_on": "S. pyogenes", "assay": "Broth microdilution MIC, US isolates 2011-2012, blood vs non-blood", "format": "cell-based", "procedure": "as §1"}, "MDR SA": {"tested_on": "MDR SA", "assay": "Microdilution MIC against MDR SA by specimen source", "format": "cell-based, S. aureus", "procedure": "456 clinical, single-patient, non-consecutive, MDR SA isolates from the known specimen sources collected in 2011-2012 were analyzed. MDR was defined as resistant to ≧3 of the following: erythromycin, clindamycin, gentamicin, levofloxacin, and trimethoprim/sulfamethoxazole. 382 were MRSA and 74 were MSSA. MICs were determined by microdilution testing in accordance with CLSI M7 and M100 guidelines. Although other comparator drugs were tested, this analysis focuses on the activities of ORI, VAN, DAP, and LZD."}, "VRE": {"tested_on": "VRE", "assay": "Susceptibility of the subject's blood culture isolate (treatment history)", "format": "cell-based", "text": "11, 2013; the plan was for at least 8 weeks of antibiotic therapy."}, "S. aureus": {"tested_on": "S. aureus", "assay": "Broth microdilution MIC, European bacteraemia isolates 2010-2012", "format": "cell-based", "conditions": "S. aureus Methicillin-resistant (1,708)", "procedure": "(§2) A total of 2,904 clinical strains responsible for documented bacteremia among unique hospitalized patients in 38 hospitals in 11 European Union countries. Israel, Russia, Turkey and Ukraine were included in this study (2010-2012). Isolates were submitted to a central monitoring laboratory (JMI Laboratories, North Liberty. Iowa. USA), following previously established protocols. Bacterial species identification was performed by using an automated system (Vitek®2; bioMèrieux, Hazelwood, Mo., USA) or conventional biochemical algorithms, as required.\n(§3) Isolates were tested for susceptibility by broth microdilution methods following the Clinical and Laboratory Standards Institute (CLSI; M07-A9, 2012) document. Susceptibility testing was performed in cation-adjusted Mueller-Hinton broth (CA-MHB) using dry-form panels manufactured by Thermo Fisher Scientific, formerly TREK Diagnostics Systems/Sensititre (Cleveland. Ohio, USA). These panels provide results equivalent to the CLSI-approved broth microdilution method supplemented with 0.002% polysorbate-80.\n(§4) Quality assurance was performed by concurrent testing of CLSI-recommended (M100-S23, 2013) strains: E. faecalis ATCC 29212 and S. aureus ATCC 29213. Interpretation of comparator MIC results was in accordance with published CLSI (M100-S23) and European Committee on Antimicrobial Susceptibility Testing (EUCAST, 2013) criteria."}, "[3]": {"tested_on": "Coagulase-negative staphylococci", "assay": "Broth microdilution MIC, European bacteraemia isolates 2010-2012", "format": "cell-based, coagulase-negative staphylococci (CoNS)", "conditions": "Table 2, Coagulase-negative staphylococci (646)", "procedure": "as §2, §3, §4"}, "E. faecalis [4]": {"tested_on": "E. faecalis", "assay": "Broth microdilution MIC, European bacteraemia isolates 2010-2012", "format": "cell-based, Enterococcus faecalis", "procedure": "as §2, §3, §4"}, "E. faecium [5]": {"tested_on": "E. faecium", "assay": "Broth microdilution MIC, European bacteraemia isolates 2010-2012", "format": "cell-based, Enterococcus faecium", "conditions": "for % Susceptible, CLSI: CLSI M100-S23 breakpoints; for MIC90: read-out: MIC 90%", "procedure": "as §2, §3, §4"}, "[6]": {"conditions": "Table 2, E. faecium Vancomycin-susceptible (257)"}},
  "data": [
    {"smiles": "CCCCCCCCCC(=O)N[C@@H](Cc1c[nH]c2ccccc12)C(=O)N[C@H](CC(N)=O)C(=O)N[C@@H](CC(=O)O)C(=O)N[C@@H]1C(=O)NCC(=O)N[C@@H](CCCN)C(=O)N[C@@H](CC(=O)O)C(=O)N[C@H](C)C(=O)N[C@@H](CC(=O)O)C(=O)NCC(=O)N[C@H](CO)C(=O)N[C@@H]([C@H](C)CC(=O)O)C(=O)N[C@@H](CC(=O)c2ccccc2N)C(=O)O[C@@H]1C", "note": "[Daptomycin, daptomycin]", "values": [
      {"measurement": "MIC90", "setting": "E. faecium [1]; Blood, N 84", "result": 4, "unit": "µg/mL"},
      {"measurement": "MIC90", "setting": "E. faecium [1]; Non-Blood, N 92", "result": 4, "unit": "µg/mL"},
      {"measurement": "MIC90", "setting": "S. agalactiae; Blood, N 100", "result": 0.25, "unit": "µg/mL"},
      {"measurement": "MIC90", "setting": "S. agalactiae; Non-Blood, N 355", "result": 0.25, "unit": "µg/mL"},
      {"measurement": "MIC90", "setting": "E. faecalis [2]; Blood, N 116", "result": 2, "unit": "µg/mL"},
      {"measurement": "MIC90", "setting": "E. faecalis [2]; Non-Blood, N 411", "result": 2, "unit": "µg/mL"},
      {"measurement": "MIC90", "setting": "S. pyogenes; Blood, N 53", "result": 0.06, "unit": "µg/mL"},
      {"measurement": "MIC90", "setting": "S. pyogenes; Non-Blood, N 282", "result": 0.06, "unit": "µg/mL"},
      {"measurement": "MIC50", "setting": "MDR SA; Blood, n = 108", "result": 0.5, "unit": "µg/mL"},
      {"measurement": "MIC90", "setting": "MDR SA; Blood, n = 108", "result": 0.5, "unit": "µg/mL"},
      {"measurement": "Mode (MIC)", "setting": "MDR SA; Blood, n = 108", "result": 0.5, "unit": "µg/mL"},
      {"measurement": "Range (MIC)", "setting": "MDR SA; Blood, n = 108, in µg/mL", "result": "0.25-4"},
      {"measurement": "MIC50", "setting": "MDR SA; Respiratory, N = 157", "result": 0.5, "unit": "µg/mL"},
      {"measurement": "MIC90", "setting": "MDR SA; Respiratory, N = 157", "result": 0.5, "unit": "µg/mL"},
      {"measurement": "Mode (MIC)", "setting": "MDR SA; Respiratory, N = 157", "result": 0.5, "unit": "µg/mL"},
      {"measurement": "Range (MIC)", "setting": "MDR SA; Respiratory, N = 157, in µg/mL", "result": "0.12-1"},
      {"measurement": "MIC50", "setting": "MDR SA; Skin/Wound, N = 191", "result": 0.5, "unit": "µg/mL"},
      {"measurement": "MIC90", "setting": "MDR SA; Skin/Wound, N = 191", "result": 0.5, "unit": "µg/mL"},
      {"measurement": "Mode (MIC)", "setting": "MDR SA; Skin/Wound, N = 191", "result": 0.5, "unit": "µg/mL"},
      {"measurement": "Range (MIC)", "setting": "MDR SA; Skin/Wound, N = 191", "result": "≦0.06-1"},
      {"measurement": "MIC", "setting": "VRE; 2012 December", "result": 6, "unit": "µg/mL"},
      {"measurement": "MIC", "setting": "VRE; 2012 July", "result": 4, "unit": "µg/mL"},
      {"measurement": "susceptibility", "setting": "VRE; 2012 July", "result": "borderline susceptible"},
      {"measurement": "% Susceptible, CLSI", "setting": "S. aureus; CLSI M100-S23 breakpoints", "result": "100.0/— %"},
      {"measurement": "% Resistant, EUCAST", "setting": "S. aureus; EUCAST 2013 breakpoints", "result": 0.0, "unit": "%"},
      {"measurement": "% Susceptible, EUCAST", "setting": "S. aureus; EUCAST 2013 breakpoints", "result": 100.0, "unit": "%"},
      {"measurement": "MIC50", "setting": "S. aureus; Staphylococcus aureus, Table 2, read-out: MIC 50%", "result": 0.25, "unit": "µg/mL"},
      {"measurement": "MIC90", "setting": "S. aureus; Staphylococcus aureus, Table 2, read-out: MIC 90%", "result": 0.5, "unit": "µg/mL"},
      {"measurement": "MIC Range", "setting": "S. aureus; Table 2", "result": "0.12 to 1", "unit": "µg/mL"},
      {"measurement": "MIC Range", "setting": "[3]", "result": "≦0.06-2 mg/L"},
      {"measurement": "MIC50", "setting": "[3]; read-out: MIC 50%", "result": 0.25, "unit": "µg/mL"},
      {"measurement": "MIC90", "setting": "[3]; read-out: MIC 90%", "result": 0.5, "unit": "µg/mL"},
      {"measurement": "% Susceptible, CLSI", "setting": "E. faecalis [4]; E. faecalis (445), CLSI M100-S23 breakpoints", "result": "100.0/— %"},
      {"measurement": "% susceptible", "setting": "E. faecalis [4]; E. faecalis strains, criteria not stated", "result": 100, "unit": "%"},
      {"measurement": "MIC50", "setting": "E. faecalis [4]; Enterococcus faecalis, Table 2, E. faecalis (445), read-out: MIC 50%", "result": 1, "unit": "µg/mL"},
      {"measurement": "MIC90", "setting": "E. faecalis [4]; Enterococcus faecalis, Table 2, E. faecalis (445), read-out: MIC 90%", "result": 1, "unit": "µg/mL"},
      {"measurement": "MIC Range", "setting": "E. faecalis [4]; Table 2, E. faecalis (445), includes four VanA-phenotype strains", "result": "≦0.06-4 mg/L"},
      {"measurement": "% Susceptible, CLSI", "setting": "E. faecium [5]; E. faecium Vancomycin-resistant (VanA-phenotype) (153)", "result": "100.0/— %"},
      {"measurement": "% Susceptible, CLSI", "setting": "E. faecium [5]; E. faecium Vancomycin-susceptible (257)", "result": "100.0/— %"},
      {"measurement": "MIC50", "setting": "E. faecium [5]; Enterococcus faecium, Table 2, E. faecium Vancomycin-resistant (VanA-phenotype) (153), read-out: MIC 50%", "result": 2, "unit": "µg/mL"},
      {"measurement": "MIC90", "setting": "E. faecium [5]; Enterococcus faecium, Table 2, E. faecium Vancomycin-resistant (VanA-phenotype) (153)", "result": 2, "unit": "µg/mL"},
      {"measurement": "MIC90", "setting": "E. faecium [5]; Enterococcus faecium, Table 2, E. faecium Vancomycin-susceptible (257)", "result": 2, "unit": "µg/mL"},
      {"measurement": "MIC Range", "setting": "E. faecium [5]; Table 2, E. faecium Vancomycin-resistant (VanA-phenotype) (153)", "result": "0.25 to 4", "unit": "µg/mL"},
      {"measurement": "MIC 50%", "setting": "E. faecium [5]; [6]", "result": 2, "unit": "µg/mL"},
      {"measurement": "MIC Range", "setting": "E. faecium [5]; [6]", "result": "0.12 to 4", "unit": "µg/mL"},
      {"measurement": "% susceptible", "setting": "E. faecium [5]; VanA-phenotype E. faecium, criteria not stated", "result": 100, "unit": "%"}
    ]}
  ]
}
